Legend:
[1] = target: T1, Intercellular adhesion molecule (ICAM-1), Integrin alpha-L/beta-2 (Homo sapiens) (UniProt P20701+P05362+P05107); conditions: JY-8
Description: 70% inhibition of JY-8 cell adhesion to ICAM-1 via leukocyte function-associated antigen-1 (LFA-1) with 50% FBS

[2] = target: T1, Intercellular adhesion molecule (ICAM-1), Integrin alpha-L/beta-2 (Homo sapiens); conditions: 50% FBS
Description: 80% inhibition of JY-8 cell adhesion to ICAM-1 via leukocyte function-associated antigen-1 (LFA-1) with 50% FBS

[3] = target: T1, Intercellular adhesion molecule (ICAM-1), Integrin alpha-L/beta-2 (Homo sapiens); conditions: JY-8; remark: listed apart in the source
Description: 70% inhibition of JY-8 cell adhesion to ICAM-1 via leukocyte function-associated antigen-1 (LFA-1) without serum

[4] = target: T1, Intercellular adhesion molecule (ICAM-1), Integrin alpha-L/beta-2 (Homo sapiens); conditions: JY-8; remark: listed apart in the source
Description: 80% inhibition of JY-8 cell adhesion to ICAM-1 via leukocyte function-associated antigen-1 (LFA-1) withouot serum

[5] = target: T2, Intercellular adhesion molecule (ICAM-1), Integrin alpha-L/beta-2 (Homo sapiens, UniProt P05107+P20701); test: Ability to block the adherence of leukocyte function-associated antigen-1 (LFA-1) expressing JY-8 cells and intercellular adhesion molecule (ICAM-1) by 50% in absence of serum; assay type: cell-based
T2 sequence (P20701 whole entry): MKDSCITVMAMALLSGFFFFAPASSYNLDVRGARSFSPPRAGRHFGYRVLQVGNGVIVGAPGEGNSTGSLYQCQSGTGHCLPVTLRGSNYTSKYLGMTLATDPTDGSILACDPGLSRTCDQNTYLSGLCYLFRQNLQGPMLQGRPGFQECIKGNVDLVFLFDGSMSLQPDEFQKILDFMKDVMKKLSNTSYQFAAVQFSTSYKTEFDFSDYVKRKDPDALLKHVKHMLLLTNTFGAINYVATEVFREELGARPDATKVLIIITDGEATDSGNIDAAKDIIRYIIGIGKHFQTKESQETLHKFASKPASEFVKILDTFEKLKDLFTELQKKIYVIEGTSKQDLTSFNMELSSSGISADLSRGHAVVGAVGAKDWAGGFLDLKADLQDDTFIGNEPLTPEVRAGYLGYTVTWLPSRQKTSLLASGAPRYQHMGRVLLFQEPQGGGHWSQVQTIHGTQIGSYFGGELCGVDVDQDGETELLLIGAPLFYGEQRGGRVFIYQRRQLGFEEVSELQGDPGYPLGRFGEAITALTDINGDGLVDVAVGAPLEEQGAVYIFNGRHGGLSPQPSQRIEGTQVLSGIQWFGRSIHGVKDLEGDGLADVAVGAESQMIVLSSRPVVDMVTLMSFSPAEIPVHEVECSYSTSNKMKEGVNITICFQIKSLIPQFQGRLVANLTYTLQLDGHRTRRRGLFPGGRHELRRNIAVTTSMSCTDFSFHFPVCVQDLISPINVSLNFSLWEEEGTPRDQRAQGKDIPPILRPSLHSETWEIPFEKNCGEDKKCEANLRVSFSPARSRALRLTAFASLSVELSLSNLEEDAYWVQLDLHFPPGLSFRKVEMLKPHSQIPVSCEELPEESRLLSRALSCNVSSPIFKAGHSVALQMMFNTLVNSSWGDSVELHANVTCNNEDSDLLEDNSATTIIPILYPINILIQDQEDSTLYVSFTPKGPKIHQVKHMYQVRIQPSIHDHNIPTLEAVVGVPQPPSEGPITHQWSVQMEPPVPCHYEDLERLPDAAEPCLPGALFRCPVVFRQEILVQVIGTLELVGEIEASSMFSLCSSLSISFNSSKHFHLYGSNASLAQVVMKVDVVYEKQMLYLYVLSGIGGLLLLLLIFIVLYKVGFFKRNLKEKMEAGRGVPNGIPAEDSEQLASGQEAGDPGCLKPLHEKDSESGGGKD
T2 sequence (P05362 whole entry, further chain): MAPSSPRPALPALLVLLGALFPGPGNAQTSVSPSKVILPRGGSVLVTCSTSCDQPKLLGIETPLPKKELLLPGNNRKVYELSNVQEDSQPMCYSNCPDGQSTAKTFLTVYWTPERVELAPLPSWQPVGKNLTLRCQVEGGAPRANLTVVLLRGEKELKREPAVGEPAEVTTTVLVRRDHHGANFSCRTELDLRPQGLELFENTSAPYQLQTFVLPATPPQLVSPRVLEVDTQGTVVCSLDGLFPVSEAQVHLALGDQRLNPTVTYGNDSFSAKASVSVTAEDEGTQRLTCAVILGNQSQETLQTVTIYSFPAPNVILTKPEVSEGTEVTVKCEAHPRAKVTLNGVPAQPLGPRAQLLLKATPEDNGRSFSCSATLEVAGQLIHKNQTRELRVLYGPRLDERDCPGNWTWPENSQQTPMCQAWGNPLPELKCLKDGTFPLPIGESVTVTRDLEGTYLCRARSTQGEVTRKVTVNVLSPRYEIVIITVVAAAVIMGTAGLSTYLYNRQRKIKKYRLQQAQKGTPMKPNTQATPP
T2 sequence (P05107 whole entry): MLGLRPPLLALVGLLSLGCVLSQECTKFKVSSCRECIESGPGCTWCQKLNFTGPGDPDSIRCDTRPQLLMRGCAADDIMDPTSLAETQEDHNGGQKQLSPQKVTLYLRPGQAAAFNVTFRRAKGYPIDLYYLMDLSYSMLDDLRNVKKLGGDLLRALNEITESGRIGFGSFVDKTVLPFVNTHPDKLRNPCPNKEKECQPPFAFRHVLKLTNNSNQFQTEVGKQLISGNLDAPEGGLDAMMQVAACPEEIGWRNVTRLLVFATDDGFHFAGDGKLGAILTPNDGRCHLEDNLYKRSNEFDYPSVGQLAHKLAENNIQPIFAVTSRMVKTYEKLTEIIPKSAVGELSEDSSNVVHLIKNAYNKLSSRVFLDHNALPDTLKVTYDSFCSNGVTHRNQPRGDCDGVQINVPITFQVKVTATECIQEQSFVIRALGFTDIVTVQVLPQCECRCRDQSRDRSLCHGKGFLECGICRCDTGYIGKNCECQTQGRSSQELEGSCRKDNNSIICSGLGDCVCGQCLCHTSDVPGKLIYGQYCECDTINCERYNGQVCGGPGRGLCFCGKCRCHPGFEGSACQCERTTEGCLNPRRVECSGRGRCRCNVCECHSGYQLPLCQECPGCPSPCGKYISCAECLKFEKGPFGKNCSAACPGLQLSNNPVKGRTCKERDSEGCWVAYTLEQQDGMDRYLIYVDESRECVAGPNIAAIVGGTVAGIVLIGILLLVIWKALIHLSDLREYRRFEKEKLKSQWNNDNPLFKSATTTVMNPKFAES

[6] = Oral bioavailability of compound at 5 mg/kg after po administration was determined in rat; assay type: ADME, organism-based; conditions: in vivo
[7] = target: T2, Intercellular adhesion molecule (ICAM-1), Integrin alpha-L/beta-2; test: 50% inhibition of JY-8 cell adhesion to ICAM-1 via leukocyte function-associated antigen-1 (LFA-1) with 50% FBS; assay type: cell-based
[8] = Half life of compound at 5 mg/kg after po administration was determined in rat; assay type: ADME, organism-based; parameters: dose 5 mg/kg, route oral; conditions: in vivo
[9] = Cmax of compound at 5 mg/kg after po administration was determined in rat; assay type: ADME, organism-based; parameters: dose 5 mg/kg, route oral; conditions: in vivo

O=C(O)C1CCCN(c2ccccc2Sc2ccc(C3CC3C(=O)NCCCN3CCCC3=O)c(Cl)c2Cl)C1 (stereo in doubt; 29) [listing 1 of 2 here]
IC70 [1]: 2100 nM | IC80 [2]: 3200 nM | IC70 [3]: 97 nM | IC80 [4]: 142 nM

CC(C)c1ccccc1Sc1ccc(C2CC2C(=O)NCCC(=O)O)c(Cl)c1Cl (stereo in doubt; 14a) [listing 1 of 2 here]
IC50 [5]: 8 nM

O=C(O)C1CCCN(c2ccccc2Sc2ccc(C3CC3C(=O)NCCCN3CCCC3=O)c(Cl)c2Cl)C1 (stereo in doubt; 28) [listing 1 of 2 here]
bioavailability [6]: 27% | IC50 [7]: 29 nM | half-life [8]: 1.2 h | IC50 [5]: 10 nM | Cmax [9]: 350 ng/mL

O=C(O)C1CCCN(c2ccccc2Sc2ccc(C3CC3C(=O)NCCCN3CCCC3=O)c(Cl)c2Cl)C1 (stereo in doubt; 29) [listing 2 of 2 here]
IC50 [7]: 640 nM | IC50 [5]: 31 nM

CC(C)c1ccccc1Sc1ccc(C2CC2C(=O)N2CCCCC2C(=O)O)c(Cl)c1Cl (single isomer, unassigned)
IC50 [5]: 33 nM

CC(C)c1ccccc1Sc1ccc(C2CC2C(=O)NCC(=O)O)c(Cl)c1Cl (single isomer, unassigned)
IC50 [5]: 33 nM

CC(C)c1ccccc1Sc1ccc(C2CC2C(=O)NCCCC(=O)O)c(Cl)c1Cl (stereo in doubt; 15a) [listing 1 of 2 here]
IC50 [5]: 7 nM

O=C(O)C1CCCN(c2ccccc2Sc2ccc(C3CC3C(=O)NCCCN3CCCC3=O)c(Cl)c2Cl)C1 (stereo in doubt; 28) [listing 2 of 2 here]
IC70 [1]: 116 nM | IC80 [2]: 199 nM | IC70 [3]: 21 nM | IC80 [4]: 26 nM

CN1CCN(c2ccccc2Sc2ccc(C3CC3C(=O)NCCCN3CCCC3=O)cc2C(F)(F)F)CC1 (stereo unspecified)
IC50 [5]: 200 nM

CC(C)c1ccccc1Sc1ccc(C2CC2C(=O)NCCCC(=O)O)c(Cl)c1Cl (stereo in doubt)
IC50 [5]: 26 nM

CC(C)c1ccccc1Sc1ccc(C2CC2C(=O)NCCCN2CCCC2=O)c(Cl)c1Cl (stereo in doubt)
IC50 [5]: 6 nM

CC(C)c1ccccc1Sc1ccc(C2CC2C(=O)N2CCC(C(=O)O)CC2)c(Cl)c1Cl (stereo in doubt; 18a) [listing 1 of 2 here]
IC70 [3]: 24 nM | IC80 [4]: 54 nM

O=C(NCCCN1CCCC1=O)C1CC1c1ccc(Sc2ccccc2N2CCCCC2)c(C(F)(F)F)c1 (stereo unspecified)
IC50 [5]: 40 nM

CC(C)c1ccccc1Sc1ccc(C2CC2C(=O)NCCC(=O)O)c(Cl)c1Cl (stereo in doubt; 14a) [listing 2 of 2 here]
IC70 [3]: 26 nM | IC80 [4]: 54 nM

CC(C)c1ccccc1Sc1ccc(C2CC2C(=O)N2CCCC(C(=O)O)C2)c(Cl)c1Cl (stereo in doubt)
IC50 [5]: 17 nM

CC(C)c1ccccc1Sc1ccc(C2CC2C(=O)NCCCN2CCCC2=O)c(Cl)c1Cl (stereo in doubt; 12a) [listing 1 of 2 here]
IC50 [5]: 7 nM

CC(C)c1ccccc1Sc1ccc(C2CC2C(=O)N2CCC(C(=O)O)CC2)c(Cl)c1Cl (single isomer, unassigned)
IC50 [5]: 21 nM

CC(C)c1ccccc1Sc1ccc(C2CC2C(=O)N2CCCCC2C(=O)O)c(Cl)c1Cl (stereo in doubt; 16a) [listing 1 of 2 here]
IC50 [7]: 1480 nM | IC50 [5]: 13 nM

O=C(O)C1CCCN(c2ccccc2Sc2ccc(C3CC3C(=O)NCCCN3CCCC3=O)cc2C(F)(F)F)C1 (stereo unspecified)
IC50 [5]: 50 nM

CC(C)c1ccccc1Sc1ccc(C2CC2C(=O)NCC(=O)O)c(Cl)c1Cl (stereo in doubt; 13a) [listing 1 of 2 here]
IC50 [5]: 12 nM

CC(C)c1ccccc1Sc1ccc(C2CC2C(=O)NCC(=O)O)c(Cl)c1Cl (stereo in doubt; 13a) [listing 2 of 2 here]
IC70 [3]: 50 nM | IC80 [4]: 95 nM

O=C(NCCCN1CCCC1=O)C1CC1c1ccc(Sc2ccccc2N2CCCC2)c(C(F)(F)F)c1 (stereo unspecified)
IC50 [5]: 32 nM

CC(C)c1ccccc1Sc1ccc(C2CC2C(=O)NCCCC(=O)O)c(Cl)c1Cl (stereo in doubt; 15a) [listing 2 of 2 here]
IC70 [3]: 16 nM | IC80 [4]: 9 nM

CC(C)c1ccccc1Sc1ccc(C2CC2C(=O)N2CCCC(C(=O)O)C2)c(Cl)c1Cl (stereo in doubt; 17a) [listing 1 of 2 here]
IC70 [3]: 13 nM | IC80 [4]: 25 nM

O=C(O)C1CCCN(c2ccccc2Sc2ccc(C3CC3C(=O)NCCCN3CCCC3=O)c(Cl)c2Cl)C1 (stereo in doubt; 30) [listing 1 of 2 here]
IC50 [7]: 27 nM | IC50 [5]: 5 nM

CCOC(=O)C1CCCN(c2ccccc2Sc2ccc(C3CC3C(=O)NCCCN3CCCC3=O)cc2C(F)(F)F)C1 (stereo unspecified)
IC50 [5]: 100 nM

O=C(NCCCN1CCCC1=O)C1CC1c1ccc(Sc2ccccc2N2CCOCC2)c(C(F)(F)F)c1 (stereo unspecified)
IC50 [5]: 15 nM

CC(C)c1ccccc1Sc1ccc(C2CC2C(=O)N2CCCCC2C(=O)O)c(Cl)c1Cl (stereo in doubt; 16a) [listing 2 of 2 here]
IC70 [1]: 3520 nM | IC80 [2]: 8820 nM | IC70 [3]: 55 nM | IC80 [4]: 110 nM

O=C(O)C1CCCN(c2ccccc2Sc2ccc(C3CC3C(=O)NCCCN3CCCC3=O)c(Cl)c2Cl)C1 (stereo in doubt; 27) [listing 1 of 2 here]
IC50 [7]: 33 nM | IC50 [5]: 15 nM

O=C(O)C1CCCN(c2ccccc2Sc2ccc(C3CC3C(=O)NCCCN3CCCC3=O)c(Cl)c2Cl)C1 (stereo in doubt; 30) [listing 2 of 2 here]
IC70 [1]: 89 nM | IC80 [2]: 133 nM | IC70 [3]: 10 nM | IC80 [4]: 19 nM

O=C(O)C1CCN(c2ccccc2Sc2ccc(C3CC3C(=O)NCCCN3CCCC3=O)cc2C(F)(F)F)CC1 (stereo unspecified)
IC50 [5]: 620 nM

O=C(O)C1CCCN(c2ccccc2Sc2ccc(C3CC3C(=O)NCCCN3CCCC3=O)c(Cl)c2Cl)C1 (stereo in doubt; 27) [listing 2 of 2 here]
IC70 [1]: 120 nM | IC80 [2]: 210 nM | IC70 [3]: 26 nM | IC80 [4]: 40 nM

CCOC(=O)C1CCN(c2ccccc2Sc2ccc(C3CC3C(=O)NCCCN3CCCC3=O)cc2C(F)(F)F)CC1 (stereo unspecified)
IC50 [5]: 115 nM

CC(C)c1ccccc1Sc1ccc(C2CC2C(=O)N2CCC(C(=O)O)CC2)c(Cl)c1Cl (stereo in doubt; 18a) [listing 2 of 2 here]
IC50 [5]: 9 nM

CC(C)c1ccccc1Sc1ccc(C2CC2C(=O)NCCC(=O)O)c(Cl)c1Cl (single isomer, unassigned)
IC50 [5]: 34 nM

CC(C)c1ccccc1Sc1ccc(C2CC2C(=O)NCCCN2CCCC2=O)c(Cl)c1Cl (stereo in doubt; 12a) [listing 2 of 2 here]
IC70 [3]: 40 nM | IC80 [4]: 63 nM

CC(C)c1ccccc1Sc1ccc(C2CC2C(=O)N2CCCC(C(=O)O)C2)c(Cl)c1Cl (stereo in doubt; 17a) [listing 2 of 2 here]
IC50 [5]: 6 nM
